From publication PMC10648541, “Design, Synthesis, and Antiproliferative Activity of Selective Histone Deacetylases 6 Inhibitors Containing a Tetrahydropyridopyrimidine Scaffold” (Molecules, 2023) come the findings set out here.

Molecules are shown by their SMILES. Where two headings read alike, the source gives them in different places.

For one data set, the system named is HCT116. The data set can be described thus: Antiproliferative assay (Alamar blue, 72 h), HCT116. The settings on record: Homo sapiens, HCT-116, HCT116 cells, three independent experiments, SD < 10%, read-out: Antiproliferative effect IC50, HCT116. In kind it is cell-based. For orientation: Resazurin is reduced to fluorescent resorufin, in cell work by metabolically active cells.

A further data set concerns HL60. The data set can be described thus: Antiproliferative assay (Alamar blue, 72 h), HL60. In kind it is cell-based. The settings on record: Homo sapiens, HL-60, HL60 cells, three independent experiments, SD < 10%, read-out: Antiproliferative effect IC50, HL60.
In the next data set the test system is RPMI-8226. Put plainly: Antiproliferative assay (Alamar blue, 72 h), RPMI-8226. In kind it is cell-based, human. The settings on record: RPMI-8226 cells, three independent experiments, SD < 10%, read-out: Antiproliferative effect IC50, RPMI-8226. How it is done: The cells were cultured in IMDM (Gibco) medium with 20% FBS (Lonsera), 100 U/mL penicillin, and 100 µg/mL streptomycin (Solarbio). All cells were maintained at 37 °C in a humidified atmosphere of 5% CO2 in air. Briefly, 100 µL cell suspension or completed medium was plated into a 96-well plate. Compounds were added and incubated for 72 h. Then, 22 µL Alamar blue solution (1 mM) was pipetted into each well of a 96-well plate, and the plate was incubated for an additional 5~6 h. The absorbance (OD) was read at 530/590 nm. Data were normalized to vehicle groups (DMSO) and represented as the means of three independent measurements with standard errors of <20%. The IC50 values were calculated using Prism 5.0.

The next data set deals with T1, HDAC6 (Homo sapiens, UniProt Q9UBN7).
T1 construct: purchased Reaction Biology Corporation
T1 sequence (Q9UBN7 1-1215): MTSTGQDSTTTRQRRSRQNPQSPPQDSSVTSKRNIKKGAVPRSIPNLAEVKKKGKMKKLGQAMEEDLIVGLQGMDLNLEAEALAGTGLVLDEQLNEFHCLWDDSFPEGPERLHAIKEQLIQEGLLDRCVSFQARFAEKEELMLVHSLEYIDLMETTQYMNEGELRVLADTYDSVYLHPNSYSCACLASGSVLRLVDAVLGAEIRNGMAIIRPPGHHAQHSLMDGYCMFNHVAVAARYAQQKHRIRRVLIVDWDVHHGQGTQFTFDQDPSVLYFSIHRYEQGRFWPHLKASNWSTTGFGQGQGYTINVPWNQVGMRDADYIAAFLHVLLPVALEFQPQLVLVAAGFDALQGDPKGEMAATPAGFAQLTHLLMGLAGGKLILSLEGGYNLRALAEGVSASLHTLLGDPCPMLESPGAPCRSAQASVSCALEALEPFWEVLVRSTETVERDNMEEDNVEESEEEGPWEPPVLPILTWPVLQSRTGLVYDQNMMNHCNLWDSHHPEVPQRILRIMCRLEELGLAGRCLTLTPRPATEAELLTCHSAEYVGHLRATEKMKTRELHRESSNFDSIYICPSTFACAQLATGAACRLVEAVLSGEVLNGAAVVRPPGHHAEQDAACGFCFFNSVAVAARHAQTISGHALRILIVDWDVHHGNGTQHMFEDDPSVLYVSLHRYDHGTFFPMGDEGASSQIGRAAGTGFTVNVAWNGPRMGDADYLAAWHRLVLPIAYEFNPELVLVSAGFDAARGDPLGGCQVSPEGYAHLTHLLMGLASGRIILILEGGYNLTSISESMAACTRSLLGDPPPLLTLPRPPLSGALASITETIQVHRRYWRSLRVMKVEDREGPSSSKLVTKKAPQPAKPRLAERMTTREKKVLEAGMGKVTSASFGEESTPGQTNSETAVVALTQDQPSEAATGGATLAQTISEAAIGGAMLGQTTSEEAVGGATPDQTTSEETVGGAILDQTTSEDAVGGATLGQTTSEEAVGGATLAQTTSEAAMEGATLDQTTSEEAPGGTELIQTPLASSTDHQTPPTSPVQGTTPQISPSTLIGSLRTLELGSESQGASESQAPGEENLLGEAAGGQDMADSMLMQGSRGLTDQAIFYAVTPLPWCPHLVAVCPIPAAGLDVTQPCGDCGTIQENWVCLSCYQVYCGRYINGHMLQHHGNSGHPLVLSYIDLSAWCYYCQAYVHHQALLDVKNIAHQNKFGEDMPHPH
Put plainly: In vitro HDAC enzyme assay (Reaction Biology Corporation), HDAC6. It is filed as biochemical. The following applies: Table 1.

The target in a further data set is T2, HDAC1 (Homo sapiens, UniProt Q13547).
T2 construct: purchased Reaction Biology Corporation
Put plainly: In vitro HDAC enzyme assay (Reaction Biology Corporation), HDAC1. The following applies: Table 1; duplicate, SD < 15%. It is filed as biochemical.

Data set [1] concerns acetylated histone 3 (H3). Put plainly: Western blot, acetylated histone 3 in RPMI-8226 cells. The following applies: 24 h, 10 μM, compared to the vehicle. It is filed as cell-based, human. The protocol:
(§1) RPMI-8226 cells (1 × 10^6) were seeded overnight and incubated with compound 8f for 24 h on indicated concentrations. Cell extract was prepared by lysing cultured cells with a mammalian protein extraction reagent supplemented with EDTA-free protease inhibitor for 15 min. SDS-PAGE and immunoblot analysis were conducted as described. Antibodies for Ac-H3 (abcom, AB32129) and Ac-ɑ-tubulin (Cell Signaling, 2144) were used.

A further data set relates to acetylated α-tubulin. Put plainly: Western blot, acetylated α-tubulin in RPMI-8226 cells. In kind it is cell-based, human. The settings on record: 24 h, 10 μM, compared to the vehicle. How it is done:
as §1

T2 sequence (Q13547 whole entry): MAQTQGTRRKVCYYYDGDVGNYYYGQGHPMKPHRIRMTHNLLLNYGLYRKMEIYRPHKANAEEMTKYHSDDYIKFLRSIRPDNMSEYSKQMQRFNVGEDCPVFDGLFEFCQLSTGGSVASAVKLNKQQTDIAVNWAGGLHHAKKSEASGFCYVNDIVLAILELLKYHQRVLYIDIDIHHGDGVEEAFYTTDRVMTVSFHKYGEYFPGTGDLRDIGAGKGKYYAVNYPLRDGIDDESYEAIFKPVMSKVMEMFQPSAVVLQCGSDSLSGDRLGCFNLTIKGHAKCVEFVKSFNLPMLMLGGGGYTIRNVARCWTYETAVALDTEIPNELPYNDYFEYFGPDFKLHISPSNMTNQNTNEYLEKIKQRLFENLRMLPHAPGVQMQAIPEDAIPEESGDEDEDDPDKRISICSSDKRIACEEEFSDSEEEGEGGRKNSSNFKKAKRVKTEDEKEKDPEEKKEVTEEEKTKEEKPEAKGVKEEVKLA

On to `O=C(CCCCCCC(=O)N1CCc2c(nc(-c3ccccc3)nc2-c2ccccc2)C1)NO` [Compound 8a, 8-(2,4-Diphenyl-5,8-dihydropyrido [3,4-d]pyrimidin-7(6H)-yl)-N-hydroxy-8-oxooctanamide], for which the melting point (commonly the temperature, or range, at which the solid turns liquid) was in the range of 115 to 117 °C. The IC50 (usually the concentration at which inhibition is half-maximal) with HCT116 was 23.4 µM. Also, in the data set with HL60, the 50% inhibitory concentration (IC50) was found to be 12.5 µM. The concentration for half-maximal inhibition (IC50) with RPMI-8226 (Homo sapiens) worked out at 16.3 µM.

Take `O=C(CCCCCCNC(=O)c1cnc(N(c2ccccc2)c2ccccc2)nc1)NO` [Compound 1, reference compound]: the IC50 amounted to 6.5 µM in the data set with HCT116, 4.1 µM in the data set on HL60 and 1.7 µM in the data set with RPMI-8226 (Homo sapiens).

`Cc1ccc(-c2nc3c(c(-c4ccc(C)cc4)n2)CCN(C(=O)CCCCCCC(=O)NO)C3)cc1` [Compound 8b, 8-(2,4-di-p-tolyl-5,8-dihydropyrido [3,4-d]pyrimidin-7(6H)-yl)-N-hydroxy-8-oxooctanamide] returned a melting point of 110 to 112 °C.

Compound `O=C(CCCCCCC(=O)N1CCc2c(nc(-c3ccc(C(F)(F)F)cc3)nc2-c2ccc(C(F)(F)F)cc2)C1)NO` [Compound 8h, 8-(2,4-Bis(4-(trifluoromethyl)phenyl)-5,8-dihydropyrido [3,4-d]pyrimidin-7(6H)-yl)-N-hydroxy-8-oxooctanamide] came in with a melting point of 145 to 146 °C. For the same compound, at HDAC6 (HDAC6 against HDAC1), the “Selectivity Index” value is reported as 26. Further, at HDAC6 (duplicate, SD < 15%), it took 0.0215 µM to reach half-maximal inhibition (IC50). This compound gave an IC50 on HDAC1 of 0.551 µM.

As to `O=C(CCCCCCC(=O)N1CCc2c(nc(-c3ccoc3)nc2-c2ccoc2)C1)NO` [Compound 8d, 8-(2,4-Di(furan-3-yl)-5,8-dihydropyrido [3,4-d]pyrimidin-7(6H)-yl)-N-hydroxy-8-oxooctanamide], the melting point lay in the range of 104 to 106 °C.

Consider `O=C(CCCCCCC(=O)Nc1ccccc1)NO` [SAHA, reference compound], for which the “levels of acetylated histone H3” value in data set [1] is “increased levels of both acetylated α-tubulin and acetylated histone H3 significantly”. Also, in the data set with acetylated α-tubulin, the “levels of acetylated α-tubulin” value is “increased levels of both acetylated α-tubulin and acetylated histone H3 significantly”. In addition, the IC50 with RPMI-8226 was determined as 0.66 µM.

`O=C(CCCCCCC(=O)N1CCc2c(nc(-c3cccs3)nc2-c2cccs2)C1)NO` [Compound 8g, 8-(2,4-Di(thiophen-2-yl)-5,8-dihydropyrido [3,4-d]pyrimidin-7(6H)-yl)-N-hydroxy-8-oxooctanamide] came in with a melting point of 128 to 129 °C.

`COc1ccc(-c2nc3c(c(-c4ccc(OC)cc4)n2)CCN(C(=O)CCCCCCC(=O)NO)C3)cc1` [Compound 8c, 8-(2,4-Bis(4-methoxyphenyl)-5,8-dihydropyrido [3,4-d]pyrimidin-7(6H)-yl)-N-hydroxy-8-oxooctanamide] showed a melting point of 117 to 118 °C. Further, the 50% inhibitory concentration (IC50) with HCT116 turned out to be 4.72 µM. Moreover, the concentration for half-maximal inhibition (IC50) with HL60 came out at 3.78 µM. On HDAC1, this compound registered a half-inhibitory concentration (IC50) of 0.472 µM. Also, in the data set with RPMI-8226 (Homo sapiens), the IC50 amounted to 4.63 µM.

`O=C(CCCCCCC(=O)N1CCc2c(nc(-c3ccsc3)nc2-c2ccsc2)C1)NO` [Compound 8e, 8-(2,4-Di(thiophen-3-yl)-5,8-dihydropyrido [3,4-d]pyrimidin-7(6H)-yl)-N-hydroxy-8-oxooctanamide] registered a melting point of 123 to 124 °C.
